Laboratory results from patent US7749491B2, “Compounds and methods to enhance rAAV transduction” (priority 2003, dated 2010).

What was measured:
[1] = system: polarized human bronchial epithelial cells; conditions: hypotonic EGTA solution; cited from earlier work
A549 cells = test: AV2Luc / AV2/5Luc transduction of A549 cells with LLnL / doxorubicin; format: cell-based, human
IB3 cells = test: AV2Luc / AV2/5Luc transduction and nuclear uptake in IB3 cells; format: cell-based, human; conditions: rAAV2-infected IB3 cells; 40 μM LLnL or 1 μM Dox; 24 hours
Procedure: LLnL and Z-LLL are two tripeptidyl aldehydes shown to inhibit calpains, cathepsins, cysteine proteases as well as the chymotrypsin-like protease activity of proteasomes (Wagner et al., 2002; Donkor, 2000; Sasaki et al., 1990). […] Both classes of proteasome inhibitors bind tightly to the proteasome complex. Dose response curves for these two proteasome-modulating agents were evaluated on IB3, A549, Hela, and primary fibroblasts. The responses were consistent for a number of cell lines and for three different promoters driving luciferase expression. For one set, CMV-driven luciferase constructs with an AAV2-based genome were employed that were packaged into AV2 or AV5 capsids. Cells were infected at various doses of AV2Luc and AV2/5Luc (MOIs 100 to 1000 particles/cell). At the time of infection, cells were treated with various concentrations of LLnL or Doxorubicin and gene expression was assayed at 24 hours post-infection. The effect of proteasome inhibitors on nuclear uptake of virus was evaluated using a previously-described protocol for fractionating viral DNA in the cytoplasm and nucleus (Xiao et al., 2002). Viral DNA content in the cytoplasmic and nuclear fractions was then evaluated by slot blot hybridization against a Luciferase DNA probe.

HeLa cells [2] = test: Luciferase rAAV transduction of HeLa cells with LLnL / doxorubicin; format: cell-based
Procedure: (§1) C. To determine whether combinations of agents that enhance rAAV transduction efficiency have synergistic or additive effects when used in combination, cells were contacted with the proteosome modulator, doxorubicin, and the proteosome inhibitor Z-LLL or LLnL. Different AAV vectors were tested, including splicing vectors and pseudotyped rAAV. Viral stocks utilized were as follows: Av2RSVluc, 5×10^8 particle/μl; Av2RSVlucCap5 (also referred to as Av2/5 CMVLuc), 2×10^9 particle/μl; Av2CMVluc, 1.3×10^9 particle/μl; and Av2CMVlucCap5, 1.1×10^9 particle/μl. Combinations of agents were compared to the agents used alone to determine the efficiency of transduction. LLnL was used at 40, 200 or 400 μM, Z-LLL at 4 μM and doxorubicin at 0.5 or 1 μM when employed alone. When a combination of LLnL and doxorubicin was used, LLnL was used at 4, 10, 20, 40, 200 or 400 μM and doxorubicin at 1 or 5 μM. The apical surface of polarized airway epithelia, HeLa cells or ferret fibroblast was contacted with the agents and rAAV (5×10^9 particles per well).

HeLa cells [3] = test: AAV2 FLAG-Luc transduction of HeLa cells (luciferase screen of agents); format: cell-based
Excerpt: A. To screen for agents that enhance rAAV transduction, any number of cells can be used. A range of concentrations of the agent to be tested can be determined based on, for instance desirable profiles of the agent, desirable toxicity profiles of the agent and/or concentration of the agents employed in vivo. The usefulness of the cell type chosen for the screen can be confirmed by testing compounds, e.g., proteosome inhibitors described in Example 1 such as LLnL and ZLL which are known to increase rAAV transduction. For example, a AAV2 FLAG-Luc vector was employed to transduce HeLa, ferret fibroblasts, IB3 and Huh (liver) cells in the presence or absence of the proteosome inhibitor MG132. MG132 was confirmed to enhance AAV transduction in all cell types tested: HeLa cell transduction was enhanced about 500-fold at 80 μM, and 200-fold at 40 μM, MG132; ferret fibroblast cell transduction was enhanced about 200-fold at 20 μM, and 17-fold at 4 μM, MG132; IB3-1 cell transduction was enhanced about 30 to 70-fold at 20 to 80 μM MG132; and Huh-7 cell transduction was enhanced about 15-fold at 20 to 80 μM MG132. There was no difference in rAAV transduction efficiency in HeLa cells when either DMSO or ETOH was used as a vehicle for MG132. B. HeLa cells were selected to screen for additional agents that enhance rAAV transduction, although any cell strain or line; or primary cells, may be employed. […] The range of concentrations of the agents to be tested were selected based on solubility profiles, toxicity profiles and/or concentrations previously employed in vivo.
HeLa cells were infected for 2 hours with an MOI of 100 rAAV in the presence of agents, e.g., ritonavir (Norvir) (1, 10 and 100 μM), cyclosporin A (2.5, 25 and 250 μg/ml), epoxomicin (1, 10 and 50 μM), alcacinomycin A (5, 50 or 500 μM), chymostatin (1, 10 and 100 μM), bestatin (1, 10 and 100 μM), doxorubicin (adriamycin) (0.1, 1 and 10 μM), camptothecin (camptosar) (1, 10 and 100 μM), eicosapentanoic acid (1, 10 and 100 μM), tannic acid (2, 20, 200 and 2000 μM), simvastatin, prodrug (2, 20 and 200 μM), cisplatin (0.2, 2 and 20 μg/mL), and chloroquine (4, 40 and 400 μM). Forty-eight hours after infection, cells were harvested for analysis. rAAV transduction was measured by removing the media from the cell cultures, adding 100 μL reporter lysis buffer (RLB) and freezing. The supernatant was thawed and transferred to microfuge tubes, freeze thawed an additional 2 times, clarified by centrifugation for 10 minutes and then analyzed for reporter gene expression on the luminometer. Protein was determined by Bradford analysis and results were expressed as relative light units per mg protein (RLU/mg).
Based on results with doxorubicin, a small number of FDA approved anthracyclines were tested for their relative in vitro and in vivo activities on AAV transduction. HeLa cells were infected with 100 ppc AAV2FLAG-Luc for 2 hours in the presence of different anthracyclines, e.g., doxorubicin, daunarubicin (Cerubidine), epirubicin (Ellence™), and idarubicin (Idamycin®), and cells harvested 48 hours later. The anthracyclines were pharmaceutical grade, and prepared according to the manufacturer's instructions. Prior to use, the agents were diluted in sterile water to an equal mass, e.g., 0.6 μg/mL, 3 μg/mL and 6 μg/mL. For example, 3 μg/mL idamycin increased luciferase expression by over 5000-fold while doxorubin increased luciferase expression by 58-fold. Generally, the potency was as follows: idarubicin>daunarubicin>epirubicin>doxorubicin.

ferret fibroblast = test: rAAV transduction of ferret fibroblasts with LLnL / doxorubicin; format: cell-based
Procedure: as §1

[4] = system: polarized human airway epithelia; test: Luciferase rAAV2 / rAAV5-capsid transduction of polarized human airway epithelia; format: cell-based

Structure (SMILES) | increase of AAV transduction from the apical surface [1] | concentration at which transduction is enhanced (A549 cells) | fraction of viral DNA in the nuclear compartment (IB3 cells) | concentration at which transduction is enhanced (HeLa cells [2]) | increase of luciferase expression (HeLa cells [3]; 3 μg/mL, 100 ppc AAV2FLAG-Luc 2 hours, harvested 48 hours) | outcome in cell line screening (HeLa cells [3]; HeLa screen) | concentration at which transduction is enhanced (ferret fibroblast; ferret fibroblast) | enhancement of transduction with lacZ splicing vectors (ferret fibroblast; ferret fibroblasts infected with lacZ splicing vectors) | enhancement of transduction from the apical surface ([4]; LLnL 40 μM and/or Dox 5 μM at the time of infection) | concentration at which transduction is enhanced ([4]; polarized airway epithelial cells)
O=C(O)CN(CCOCCOCCN(CC(=O)O)CC(=O)O)CC(=O)O [EGTA] | 7 to 10 fold |  |  |  |  |  |  |  |  | 
COc1cccc2c1C(=O)c1c(O)c3c(c(O)c1C2=O)C[C@@](O)(C(=O)CO)C[C@@H]3O[C@H]1C[C@H](N)[C@H](O)[C@H](C)O1 [doxorubicin] |  | 5 µM | significantly increased the fraction of viral DNA in the nuclear compartment | 1 µM | 58 fold | tested positive | 1 µM | about 100 fold | 100 fold | 5 µM
